Read-outs that look alike come from different tables or passages of the source.
Target: T1, Human Recombinant Matriptase 2 (Homo sapiens, UniProt Q8IU80)
T1 construct: made in house
T1 sequence (Q8IU80 1-811): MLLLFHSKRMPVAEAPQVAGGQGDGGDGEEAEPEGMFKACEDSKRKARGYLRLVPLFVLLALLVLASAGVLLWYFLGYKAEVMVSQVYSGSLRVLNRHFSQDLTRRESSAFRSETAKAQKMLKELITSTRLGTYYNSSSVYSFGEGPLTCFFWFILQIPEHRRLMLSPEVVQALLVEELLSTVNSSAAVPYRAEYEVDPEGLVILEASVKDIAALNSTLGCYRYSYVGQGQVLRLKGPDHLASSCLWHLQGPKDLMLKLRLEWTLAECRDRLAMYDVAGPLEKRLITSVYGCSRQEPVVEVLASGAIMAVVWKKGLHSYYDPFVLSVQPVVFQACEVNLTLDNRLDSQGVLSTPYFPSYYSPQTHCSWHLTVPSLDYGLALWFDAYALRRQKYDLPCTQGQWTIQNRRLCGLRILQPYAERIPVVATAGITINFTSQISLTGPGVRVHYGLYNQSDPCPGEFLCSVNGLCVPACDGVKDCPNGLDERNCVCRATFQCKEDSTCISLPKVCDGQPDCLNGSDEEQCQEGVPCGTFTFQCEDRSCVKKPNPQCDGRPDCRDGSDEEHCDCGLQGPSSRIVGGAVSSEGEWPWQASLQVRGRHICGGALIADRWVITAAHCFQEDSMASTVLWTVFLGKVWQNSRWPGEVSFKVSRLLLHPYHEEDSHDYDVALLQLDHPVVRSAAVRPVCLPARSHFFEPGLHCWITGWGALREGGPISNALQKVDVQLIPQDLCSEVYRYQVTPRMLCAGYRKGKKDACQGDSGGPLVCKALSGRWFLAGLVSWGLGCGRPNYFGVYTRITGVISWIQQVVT
Assay: Matriptase 2 inhibition, fluorescence based assay (Method I)
Assay type: biochemical
Outline: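 Fluorogenic readout (Ex 360/Em 480 nm) taken 60 min after adding 62 μM Boc-Gln-Ala-Arg-AMC, following 30-min enzyme–compound preincubation at 25 °C. Conditions: 3.5 nM in-house enzyme, pH 7.5 Tris/NaCl/gelatin buffer, 1% DMSO; percent inhibition versus concentration fitted by variable-slope sigmoidal regression.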

[1] = Table B, Human Recombinant Matriptase 2, 3.5 nM enzyme, 62 μM substrate, 30 mins preincubation, read-out: Mean Ki
[2] = Table A, Ki of Matriptase-2, read-out: Mat-2 Ki
[3] = Table A, Ki of Matriptase-2 given as class symbols, read-out: Mat-2 Ki

Row | Structure (SMILES) | Ki [2] | Ki [3] | other results
1 | NCc1ccc2cc(C(=O)Nc3ccc(N)cc3)n(Cc3cc(NS(=O)(=O)Cc4ccccc4)cc4ccccc34)c2n1 [Compound 2.35] | – | – | Ki [1]: 100 to 500 nM
2 | NCc1ccc2cc(C(=O)O)n(Cc3cc(NS(=O)(=O)[C@H](F)c4ccccc4)cc4ccccc34)c2n1 (racemic) [Compound 98, 6-(aminomethyl)-1-({3-[fluoro(phenyl)methane-sulfonamido]naphthalen-1-yl}methyl)-1H-pyr-rolo[2,3-b]pyridine-2-carboxylic acid] | 100 to 500 nM | – | –
3 | CN1CCC(COC(=O)c2cc3ccc(CN)nc3n2Cc2cccn3ccnc23)CC1 [Compound 2.39] | – | – | Ki [1]: > 3000 nM
4 | NCc1ccc2cc(C(=O)O)n(Cc3cc(NS(=O)(=O)Cc4cccs4)cc4ccccc34)c2n1 [Compound 153, 6-(aminomethyl)-1-({3-[(thiophen-2-yl)methane-sulfonamido]naphthalen-1-yl}methyl)-1H-pyr-rolo[2,3-b]pyridine-2-carboxylic acid] | ≤ 100 nM | – | –
5 | Cc1conc1CS(=O)(=O)Nc1cc(Cn2c(C(=O)O)cc3ccc(CN)nc32)c2ccccc2c1 [Compound 243, 6-(aminomethyl)-1-({3-[(4-methyl-1,2-oxazol-3-yl)methanesulfonamido]-naphthalen-1-yl}methyl)-1H-pyrrolo[2,3-b]pyr-idine-2-carboxylic acid] | – | 100 to 500 nM | –
6 | Cc1cccc(C)c1CS(=O)(=O)Nc1cc(Cn2c(C(=O)NCCN3CCOCC3)cc3ccc(CN)nc32)c2ccccc2c1 [Compound 196, 6-(aminomethyl)-1-({3-[(2,6-dimethylphenyl)-methanesulfonamido]-naphthalen-1-yl}meth-yl)-N-[2-(morpholin-4-yl)ethyl]-1H-pyrrolo-[2,3-b]pyridine-2-car-boxamide] | ≤ 100 nM | – | –
7 | NCc1ccc2cc(C(=O)O)n(Cc3cc(NS(=O)(=O)Cc4cscn4)cc4ccccc34)c2n1 [Compound 239, 6-(aminomethyl)-1-({3-[(1,3-thiazol-4-yl)meth-anesulfonamido]naph-thalen-1-yl}methyl)-1H-pyrrolo[2,3-b]pyridine-2-carboxylic acid] | – | 100 to 500 nM | –
8 | NCc1ccc2cc(C(=O)OCC3CCOCC3)n(Cc3cc(NS(=O)(=O)Cc4ccsc4)cc4ccccc34)c2n1 [Compound 176, (oxan-4-yl)methyl 6-(aminomethyl)-1-({3-[(thiophen-3-yl)methane-sulfonamido]naphthalen-1-yl}methyl)-1H-pyr-rolo[2,3-b]pyridine-2-carboxylate] | ≤ 100 nM | – | –
9 | CN1CCC(OC(=O)c2cc3ccc(CN)cc3n2Cc2cc(NS(=O)(=O)Cc3ccccc3)cc3ccccc23)CC1 [Compound 371, 1-methylpiperidin-4-yl 6-(aminomethyl)-1-((3-((phenylmethyl)sulfonamido)naphthalen-1-yl)methyl)-1H-indole-2-carboxylate] | – | ≤ 100 nM | –
10 | NCc1ccc2cc(C(=O)O)n(Cc3cc(NS(=O)(=O)Cc4ccccc4)cc4cccc(O)c34)c2n1 [Compound 360, 6-(aminomethyl)-1-((8-hydroxy-3-((phenylmethyl)sulfonamido)naphthalen-1-yl)methyl)-1H-pyrrolo[2,3-b]pyridine-2-carboxylic acid] | – | 100 to 500 nM | –
11 | CCN1C[C@@H](S(=O)(=O)Nc2cc(Cn3c(C(=O)O)cc4ccc(CN)nc43)c3ccccc3c2)CC1=O (racemic) [Compound 282, rac-6-(aminomethyl)-1-({3-[(3R)-1-ethyl-5-oxopyrrolidine-3-sulfon-amido]naphthalen-1-yl}-methyl)-1H-pyrrolo[2,3-b]pyridine-2-carboxylic acid] | – | 500 to 3000 nM | –
12 | NCc1ccc2cc(C(=O)O)n(Cc3cc(NC(=O)N4CC5CC(C5)C4)cc4ccccc34)c2n1 [Compound 308, 6-(aminomethyl)-1-{[3-({3-azabicyclo[3.1.1]-heptane-3-carbonyl}-amino)naphthalen-1-yl]-methyl}-1H-pyrrolo[2,3-b]pyridine-2-carboxylic acid] | – | 500 to 3000 nM | –
13 | CNCCOC(=O)c1cc2ccc(CN)nc2n1Cc1cc(NS(=O)(=O)Cc2cccs2)cc2ccccc12 [Compound 152, 2-(methylamino)ethyl 6-(aminomethyl)-1-({3-[(thiophen-2-yl)methane-sulfonamido]naphthalen-1-yl}methyl)-1H-pyr-rolo[2,3-b]pyridine-2-carboxylate] | ≤ 100 nM | – | –

Continued, in another order:

Row | Ki [2] | Ki [3] | Structure (SMILES) | other results
14 | 500 to 3000 nM | – | CC(C)C(=O)O[C@H](C)OC(=O)c1cc2ccc(CN)nc2n1Cc1cc(NS(=O)(=O)Cc2ccccc2)cc2ccccc12 (racemic) [Compound 118, 1-[6-(aminomethyl)-1-{[3-(phenylmethanesul-fonamido)naphthalen-1-yl]methyl}-1H-pyrrolo-[2,3-b]pyridine-2-car-bonyloxylethyl 2-meth-ylpropanoate] | –
15 | – | 100 to 500 nM | NCc1ccc2cc(C(=O)O)n(Cc3cc(NS(=O)(=O)Cc4cccc(F)c4)cc4ccccc34)c2n1 [Compound 229, 6-(aminomethyl)-1-({3-[(3-fluorophenyl)meth-anesulfonamido]naph-thalen-1-yl}methyl)-1H-pyrrolo[2,3-b]pyridine-2-carboxylic acid] | –
16 | 100 to 500 nM | – | CC(C)n1cnc(COC(=O)c2cc3ccc(CN)nc3n2Cc2cc(NS(=O)(=O)Cc3ccccc3)cc3ccccc23)c1 [Compound 87, [1-(propan-2-yl)-1H-imidazol-4-yl]methyl 6-(aminomethyl)-1-{[3-(phenylmethanesulfon-amido)naphthalen-1-yl]-methyl}-1H-pyrrolo[2,3-b]pyridine-2-carboxylate] | –
17 | 100 to 500 nM | – | NCc1ccc2cc(C(=O)OC[C@H]3CCCN3)n(Cc3cc(NS(=O)(=O)Cc4ccccc4)cc4ccccc34)c2n1 (racemic) [Compound 108, rac-[(2R)-pyrrolidin-2-yl]methyl 6-(aminometh-yl)-1-{[3-(phenylmeth-anesulfonamido)naph-thalen-1-yl]methyl}-1H-pyrrolo[2,3-b]pyridine-2-carboxylate] | –
18 | ≤ 100 nM | – | NCc1ccc2cc(C(=O)OCC[C@H]3CCCCN3)n(Cc3cc(NS(=O)(=O)Cc4ccccc4)cc4ccccc34)c2n1 (racemic) [Compound 32, 2-(piperidin-2-yl)ethyl 6-(aminomethyl)-1-{[3-(phenylmethanesulfon-amido)naphthalen-1-yl]-methyl}-1H-pyrrolo[2,3-b]pyridine-2-carboxylate] | –
19 | ≤ 100 nM | – | CN1CCC(OC(=O)c2cc3ccc(CN)nc3n2Cc2cc(NS(=O)(=O)Cc3ccccc3)cc3ccccc23)CC1 [Compound 18, 1-methylpiperidin-4-yl 6-(aminomethyl)-1-{[3-(phenylmethanesulfon-amido)naphthalen-1-yl]-methyl}-1H-pyrrolo[2,3-b]pyridine-2-carboxylate] | –
20 | 100 to 500 nM | – | CN(C)C(=O)COC(=O)c1cc2ccc(CN)nc2n1Cc1cc(NS(=O)(=O)Cc2ccccc2)cc2ccccc12 [Compound 139, (dimethylcarbamoyl)-methyl 6-(aminomethyl)-1-{[3-(phenylmethane-sulfonamido)naphthalen-1-yl]methyl}-1H-pyrrolo-[2,3-b]pyridine-2-car-boxylate] | –
21 | ≤ 100 nM | – | CN1CCCC[C@@H]1COC(=O)c1cc2ccc(CN)nc2n1Cc1cc(NS(=O)(=O)Cc2ccccc2)cc2ccccc12 (racemic) [Compound 63, (1-methylpiperidin-2-yl)methyl 6-(aminometh-yl)-1-{[3-(phenylmeth-anesulfonamido)naph-thalen-1-yl]lmethyl}-1H-pyrrolo[2,3-b]pyridine-2-carboxylate] | –
22 | ≤ 100 nM | – | CN1CCC(CCOC(=O)c2cc3ccc(CN)nc3n2Cc2cc(NS(=O)(=O)Cc3ccccc3)cc3ccccc23)CC1 [Compound 39, 2-(1-methylpiperidin-4-yl)ethyl 6-(aminometh-yl)-1-{[3-(phenylmeth-anesulfonamido)naph-thalen-1-yl]methyl}-1H-pyrrolo[2,3-b]pyridine-2-carboxylate] | –
23 | – | 500 to 3000 nM | NCc1ccc2cc(CO)n(Cc3cc(NS(=O)(=O)Cc4ccccc4)cc4ccccc34)c2n1 [Compound 365, N-(4-((6-(aminomethyl)-2-(hydroxymethyl)-1H-pyrrolo[2,3-b]pyridin-1-yl)methyl)naphthalen-2-yl)-1-phenylmethanesulfonamide] | –
24 | 100 to 500 nM | – | CC(C)N(CCOC(=O)c1cc2ccc(CN)nc2n1Cc1cc(NS(=O)(=O)Cc2ccccc2)cc2ccccc12)C(C)C [Compound 131, 2-[bis(propan-2-yl)-amino]ethyl 6-(amino-methyl)-1-{[3-(phenyl-methanesulfonamido)-naphthalen-1-yl]meth-yl}-1H-pyrrolo[2,3-b]-pyridine-2-carboxylate] | –
